How the values were obtained:
[1] = Assay for determining cytosolic clearance, human liver cytosol; format: in vitro ADME; details: 0.5 μM compound, 1 mg/ml human liver cytosol, 37° C., pH 7.5
Description: (§1) For comparison purposes data measured with human liver cytosol were contrasted with those obtained with cynomolgus monkey liver cytosol.
(§2) 0.5 μM of a compound to be tested was incubated with 1 mg/ml of human liver cytosol as well as monkey liver cytosol at 37° C. in 0.5 M of phosphate buffer at pH 7.5 while shaking (commercial sources: female cynomolgus liver cytosol from Tebu bio, human liver cytosol from BDgentest).
(§3) In each case aliquots of 65 μl were taken after 0, 5, 10 and 15 min and transferred into wells of a wellplate which were immediately filled with 130 μl of ethanol to stop the reaction. The samples were kept frozen until analysis on a LC/MS/MS system (Applied Biosystems SCIEX 4000).
(§4) Read out parameters were the loss of parent compounds, from which the half life periods (T1/2) were calculated from.
(§5) To assess the stability of the compounds tested the clearance ranges were adjusted to the hepatic plasma flow of the different species according to the following scheme:
(§6) stable=from 0 to about ⅓ of the hepatic plasma flow;
(§7) moderately stable=from about ⅓ to about ⅔ of the hepatic plasma flow;
(§8) instable=more than ⅔ of the hepatic plasma flow.
(§9) Based on this adjustment the following qualifiers were assigned to evaluate the cytosolic stabilities of the compounds tested: […]

[2] = target: T1, cathepsin L isolated from human liver (Homo sapiens, UniProt P07711); assay: Cathepsin L enzyme inhibition in vitro (kinetic fluorescence assay); format: biochemical; details: Ki(cathepsin L)/Ki(calpain) ratio
T1 construct: cathepsin L—isolated from human liver; purchased Calbiochem 219402; host or cells: human liver (tissue-derived)
Outline: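 Inhibition of cathepsin L isolated from human liver was measured by kinetic fluorescence (excitation 390 nm, emission 460 nm) using 1 nM enzyme and 2 μM Z-Phe-Arg-AMC substrate (Km 2 μM) in 50 mM MES, 2 mM EDTA, 0.05% Brij 35, 2.5 mM L-cysteine, pH 6.0, at room temperature. Apparent Ki values came from IC50 values via the Cheng-Prussoff relation, averaged over 2 to 4 dose-effect plots.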

[3] = target: T2, recombinant human cathepsin S (Homo sapiens, UniProt P25774); assay: Cathepsin S enzyme inhibition in vitro (kinetic fluorescence assay); format: biochemical; details: Ki(cathepsin S)/Ki(calpain) ratio
T2 construct: purchased Calbiochem 219343; host or cells: E. coli
Outline: (§10)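 Kinetic AMC fluorescence (ex 390/em 460 nm), room temperature. Calpain-I 20 nM, 100 μM Suc-Leu-Tyr-AMC, imidazole/CaCl2 pH 7.3; cathepsins B 0.25 nM/100 μM Z-Phe-Arg-AMC, K 3 nM/10 μM Z-Gly-Pro-Arg-AMC, S 0.5 nM/20 μM Z-Val-Val-Arg-AMC, each MES/EDTA/cysteine pH 6.0. Ki from IC50 via Cheng-Prusoff, averaging 2–4 curves.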

[4] = Assay for determining cytosolic clearance, cynomolgus monkey liver cytosol; format: in vitro ADME; details: 0.5 μM compound, 1 mg/ml cynomolgus monkey liver cytosol, 37° C., pH 7.5
Description: as §1, §2, §3, §4, §5, §6, §7, §8, §9

[5] = target: T3, calpain-I isolated from human erythrocytes (Homo sapiens, UniProt P07384); assay: Calpain I enzyme inhibition in vitro (kinetic fluorescence assay); format: biochemical; details: apparent Ki from IC50 (Cheng-Prussoff); 20 nM calpain-I, 100 μM Suc-Leu-Tyr-AMC, pH 7.3, room temperature
T3 construct: calpain-I—isolated from human erythrocytes; purchased Calbiochem 208713; host or cells: human erythrocytes (tissue-derived)
T3 sequence (P07384 1-714): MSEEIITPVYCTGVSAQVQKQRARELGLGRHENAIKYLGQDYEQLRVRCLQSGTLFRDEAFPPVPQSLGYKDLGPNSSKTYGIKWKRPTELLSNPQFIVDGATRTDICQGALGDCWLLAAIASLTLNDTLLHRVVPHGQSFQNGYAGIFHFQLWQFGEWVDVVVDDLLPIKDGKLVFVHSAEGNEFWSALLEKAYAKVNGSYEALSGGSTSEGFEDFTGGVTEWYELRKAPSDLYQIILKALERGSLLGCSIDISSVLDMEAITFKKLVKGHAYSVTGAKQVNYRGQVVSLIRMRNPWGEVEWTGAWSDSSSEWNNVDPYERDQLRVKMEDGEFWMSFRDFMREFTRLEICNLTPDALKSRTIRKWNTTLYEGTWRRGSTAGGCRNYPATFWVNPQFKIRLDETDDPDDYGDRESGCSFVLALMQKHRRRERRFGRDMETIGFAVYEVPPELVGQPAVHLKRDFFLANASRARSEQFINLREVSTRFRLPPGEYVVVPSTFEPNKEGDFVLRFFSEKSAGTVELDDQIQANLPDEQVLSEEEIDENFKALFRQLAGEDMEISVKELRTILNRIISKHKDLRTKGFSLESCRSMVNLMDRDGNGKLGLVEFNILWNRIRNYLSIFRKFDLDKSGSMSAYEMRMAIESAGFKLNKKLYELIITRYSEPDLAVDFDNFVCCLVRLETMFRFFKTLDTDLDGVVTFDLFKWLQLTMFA
T3 sequence (P04632 1-268 partner): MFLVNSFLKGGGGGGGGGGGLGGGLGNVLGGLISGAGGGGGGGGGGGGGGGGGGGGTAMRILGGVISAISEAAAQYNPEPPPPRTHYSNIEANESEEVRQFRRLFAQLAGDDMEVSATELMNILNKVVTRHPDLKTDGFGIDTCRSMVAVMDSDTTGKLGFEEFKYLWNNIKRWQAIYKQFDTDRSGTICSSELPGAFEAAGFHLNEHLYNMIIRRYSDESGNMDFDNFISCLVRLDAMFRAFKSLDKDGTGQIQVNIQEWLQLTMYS
Outline: as §10

[6] = target: T4, cathepsin K activated from recombinant human procathepsin K (Homo sapiens, UniProt P43235); assay: Cathepsin K enzyme inhibition in vitro (kinetic fluorescence assay); format: biochemical; details: Ki(cathepsin K)/Ki(calpain) ratio
T4 construct: purchased Calbiochem 342001; host or cells: E. coli
T4 sequence (P43235 115-329): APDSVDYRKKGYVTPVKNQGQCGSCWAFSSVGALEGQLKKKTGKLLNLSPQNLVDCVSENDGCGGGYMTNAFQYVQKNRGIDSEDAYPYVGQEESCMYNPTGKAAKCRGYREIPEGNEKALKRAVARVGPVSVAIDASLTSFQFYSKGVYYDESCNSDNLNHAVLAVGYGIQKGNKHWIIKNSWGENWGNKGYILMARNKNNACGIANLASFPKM
Outline: as §10

[7] = target: T5, cathepsin B isolated from human liver (Homo sapiens, UniProt P07858); assay: Cathepsin B enzyme inhibition in vitro (kinetic fluorescence assay); format: biochemical; details: Ki(cathepsin B)/Ki(calpain) ratio
T5 construct: cathepsin B—isolated from human liver; purchased Calbiochem 219362; host or cells: human liver (tissue-derived)
Outline: as §10

T2 sequence (P25774 115-331): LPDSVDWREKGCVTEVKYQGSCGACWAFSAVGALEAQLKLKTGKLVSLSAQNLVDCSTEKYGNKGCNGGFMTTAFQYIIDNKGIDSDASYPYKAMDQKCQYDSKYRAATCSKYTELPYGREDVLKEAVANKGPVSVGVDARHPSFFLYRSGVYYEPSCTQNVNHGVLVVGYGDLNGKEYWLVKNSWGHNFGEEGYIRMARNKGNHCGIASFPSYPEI
T1 sequence (P07711 114-333): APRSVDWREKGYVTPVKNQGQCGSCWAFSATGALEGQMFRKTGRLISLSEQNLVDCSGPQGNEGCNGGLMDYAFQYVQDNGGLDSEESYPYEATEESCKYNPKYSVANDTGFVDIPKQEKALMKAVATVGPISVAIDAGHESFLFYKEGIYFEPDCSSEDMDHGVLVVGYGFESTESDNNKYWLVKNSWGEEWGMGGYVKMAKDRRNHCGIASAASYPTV

| Structure (SMILES) | human cytCL [1] | Sel cat. L [2] | Sel cat. S [3] | cyno cytCL [4] | Ki [5] [µM] | Sel cat. K [6] | Sel cat. B [7] |
| --- | --- | --- | --- | --- | --- | --- | --- |
| CCNC(=O)C(=O)C(Cc1ccccc1)NC(=O)[C@H]1CCC(=O)N1Cc1ccccc1 (stereo partly drawn) [Example 21, (2R)-1-Benzyl-N-[4-(ethylamino)-3,4-dioxo-1-phenylbutan-2-yl]-5-oxopyrrolidine-2-carboxamide] | ++ (0-14 μl/min/mg) | +++ (Ki(cathepsin L)/Ki(calpain) ratio of >30) | ++ (30<Ki(cathepsin B)/Ki(calpain)≦100) | ++ (0-18 μl/min/mg) | 0.1 to 0.6 | +++ (Ki(cathepsin K)/Ki(calpain) ratio of >30) | +++ (Ki(cathepsin B)/Ki(calpain) ratio of >30) |
| COc1cccc(C(F)(F)F)c1CN1C(=O)CC[C@@H]1C(=O)NC(Cc1ccccc1)C(=O)C(N)=O (stereo partly drawn) [Example 50, (2R)—N-(4-Amino-3,4-dioxo-1-phenylbutan-2-yl)-5-oxo-1-[2-methoxy-6-(trifluoromethyl)benzyl]pyrrolidine-2-carboxamide] | + (14-70 μl/min/mg) | +++ (Ki(cathepsin L)/Ki(calpain) ratio of >30) | +++ (Ki(cathepsin S)/Ki(calpain) ratio of >100) | + (18-90 μl/min/mg) | < 0.05 | +++ (Ki(cathepsin K)/Ki(calpain) ratio of >30) | +++ (Ki(cathepsin B)/Ki(calpain) ratio of >30) |

— patent US9018206B2, “Carboxamide compounds and their use as calpain inhibitors” (AbbVie Deutschland GmbH & Co. KG, priority 2009, dated 2015)
